{
  "source": "patent US8337903B2",
  "about": "“Antitumoral agents with a benzophenanthridine structure and formulations containing them” (Indena S.p.A., priority 2008, dated 2012)",
  "key": {"colon stem cells": {"system": "colon stem cells", "assay": "in vitro inhibiting activity towards colon stem cells", "assay_type": "cell-based", "conditions": "concentration of 200 ng/ml", "description": "(§1) Its behaviour towards other oncological stem cells is identical. These alkaloids can consequently be considered new-generation antitumoral agents, which are able to treat human tumors effectively. For tumors of the colon, liver, pancreas and cervix the most appropriate form is the salt with luteic acid dispersed in a suitable vehicle, whereas for the treatment of skin tumors such as melanoma, the salt with a phosphatidic acid can advantageously be administered topically directly to the area affected by the tumor."}, "[1]": {"system": "oropharynx, head and neck tumors, melanoma and cervical tumors", "assay": "treatment of oropharynx, head and neck tumors, melanoma and cervical tumors", "assay_type": "in vivo", "conditions": "oral and topical administration; compared with the unsalified alkaloid", "description": "The product most suitable for oral and topical administration is the salt of sanguinarine with luteic acid."}, "melanoma stem cells": {"system": "melanoma stem cells", "assay": "in vitro inhibiting activity towards melanoma stem cells", "assay_type": "cell-based", "conditions": "concentration of 200 ng/ml", "description": "as §1"}},
  "data": [
    {"substance": "luteic acid sanguinarine salt [salt of sanguinarine with luteic acid]", "values": [
      {"measurement": "inhibiting activity towards colon stem cells", "setting": "colon stem cells", "result": "potent inhibiting activity"},
      {"measurement": "effectiveness in the treatment of tumors", "setting": "[1]", "result": "particularly effective"},
      {"measurement": "inhibiting activity towards melanoma stem cells", "setting": "melanoma stem cells", "result": "potent inhibiting activity"}
    ]}
  ]
}
